Test results published in patent US8895761B2, “4-phenylpyrane-3,5-diones, 4-phenylthiopyrane-3,5-diones and 2-phenylcyclohexane-1,3,5-triones as herbicides” (Syngenta Limited, priority 2007, dated 2014).

Columns and labels:
Format in all cases: in vivo
Lolium perenne (LOLPE) [1] = assay: Pre-emergence herbicidal glasshouse test, Lolium perenne; settings: 312 h, rate 250 g/ha, evaluated after 13 days, scale 100 = total damage to plant, 0 = no damage
Description: (§1) Seeds of a variety of test species were sown in standard soil in pots. After cultivation for one day (pre-emergence) or after 8 days cultivation (post-emergence) under controlled conditions in a glasshouse (at 24/16° C., day/night; 14 hours light; 65% humidity), the plants were sprayed with an aqueous spray solution derived from the formulation of the technical active ingredient in acetone/water (50:50) solution containing 0.5% Tween 20 (polyoxyethelyene sorbitan monolaurate, CAS RN 9005-64-5). The test plants were then grown in a glasshouse under controlled conditions in a glasshouse (at 24/16° C., day/night; 14 hours light; 65% humidity) and watered twice daily. After 13 days for pre and post-emergence, the test was evaluated ([…] to plant; 0=no damage to plant).
(§2) Setaria faberi (SETFA), Lolium perenne (LOLPE), Alopecurus myosuroides (ALOMY), Echinochloa crus-galli (ECHCG) and Avena fatua (AVEFA).

[2] = tested on: Alopecurus myosuroides (ALOMY); assay: Pre-emergence herbicidal glasshouse test, Alopecurus myosuroides; settings: Alopecurus myosuroides, 312 h, rate 250 g/ha, evaluated after 13 days, scale 100 = total damage to plant, 0 = no damage
Description: as §1, §2

[3] = tested on: Echinochloa crus-galli (ECHCG); assay: Pre-emergence herbicidal glasshouse test, Echinochloa crus-galli; settings: Echinochloa crus-galli, 312 h, rate 250 g/ha, evaluated after 13 days, scale 100 = total damage to plant, 0 = no damage
Description: as §1, §2

Avena fatua (AVEFA) [4] = assay: Pre-emergence herbicidal glasshouse test, Avena fatua; settings: Avena fatua, 312 h, rate 250 g/ha, evaluated after 13 days, scale 100 = total damage to plant, 0 = no damage
Description: as §1, §2

Lolium perenne (LOLPE) [5] = assay: Post-emergence herbicidal glasshouse test, Lolium perenne; settings: 312 h, rate 250 g/ha, evaluated after 13 days, scale 100 = total damage to plant, 0 = no damage
Description: as §1, §2

[6] = tested on: Alopecurus myosuroides (ALOMY); assay: Post-emergence herbicidal glasshouse test, Alopecurus myosuroides; settings: Alopecurus myosuroides, 312 h, rate 250 g/ha, evaluated after 13 days, scale 100 = total damage to plant, 0 = no damage
Description: as §1, §2

[7] = tested on: Echinochloa crus-galli (ECHCG); assay: Post-emergence herbicidal glasshouse test, Echinochloa crus-galli; settings: Echinochloa crus-galli, 312 h, rate 250 g/ha, evaluated after 13 days, scale 100 = total damage to plant, 0 = no damage
Description: as §1, §2

Avena fatua (AVEFA) [8] = assay: Post-emergence herbicidal glasshouse test, Avena fatua; settings: Avena fatua, 312 h, rate 250 g/ha, evaluated after 13 days, scale 100 = total damage to plant, 0 = no damage
Description: as §1, §2

SMILES	pest or weed control at 250 g/ha (Lolium perenne (LOLPE) [1])	pest or weed control at 250 g/ha [2]	pest or weed control at 250 g/ha [3]	pest or weed control at 250 g/ha (Avena fatua (AVEFA) [4])	pest or weed control at 250 g/ha (Lolium perenne (LOLPE) [5])	pest or weed control at 250 g/ha [6]	pest or weed control at 250 g/ha [7]	pest or weed control at 250 g/ha (Avena fatua (AVEFA) [8])
CCc1cc(-c2ccc(F)c(OC)c2)ccc1C1=C(O)C(C)(COC)OC(C)(C)C1=O (centres unmarked) [Compound A-112]	90%	80%	100%	80%	90%	80%	100%	80%
CCc1cc(-c2ccc(F)c(F)c2)ccc1C1=C(O)C(C)(COC)OC(C)(C)C1=O (centres unmarked) [Compound A-113]	100%	100%	100%	90%	100%	100%	100%	90%
CCc1cc(-c2cc(F)c(F)c(F)c2)ccc1C1=C(O)C(C)(COC)OC(C)(C)C1=O (centres unmarked) [Compound A-114]	100%	90%	100%	90%	100%	90%	100%	90%
CCc1cc(-c2c(F)cc(F)cc2F)ccc1C1=C(O)C(C)(COC)OC(C)(C)C1=O (centres unmarked) [Compound A-116]	70%	90%	100%	60%	70%	90%	100%	60%
CCc1cc(-c2ccc(F)c(F)c2F)ccc1C1=C(O)C(C)(COC)OC(C)(C)C1=O (centres unmarked) [Compound A-117]	60%	70%	90%	40%	80%	90%	100%	80%
CCc1cc(-c2ccc(F)c(OC)c2)ccc1C1=C(O)C(C)(CC)OC(C)(C)C1=O (centres unmarked) [Compound A-118]	90%	20%	40%	0%	80%	60%	90%	80%
CCc1cc(-c2ccc(F)c(F)c2)ccc1C1=C(O)C(C)(CC)OC(C)(C)C1=O (centres unmarked) [Compound A-119]	60%	40%	30%	10%	90%	100%	100%	90%
CCc1cc(-c2cc(F)c(F)c(F)c2)ccc1C1=C(O)C(C)(CC)OC(C)(C)C1=O (centres unmarked) [Compound A-120]	90%	60%	70%	40%	100%	100%	100%	100%
CCc1cc(-c2cc(F)c(F)cc2F)ccc1C1=C(O)C(C)(CC)OC(C)(C)C1=O (centres unmarked) [Compound A-122]	0%	20%	10%	0%	70%	90%	70%	30%
CCc1cc(-c2ccc(F)c(F)c2F)ccc1C1=C(O)C(C)(CC)OC(C)(C)C1=O (centres unmarked) [Compound A-123]	0%	0%	0%	0%	80%	80%	90%	80%
CCc1cc(-c2ccc(F)c(F)c2)ccc1C1=C(O)C2(CCCC2)OC(C)(C)C1=O [Compound A-125]	0%	0%	0%	0%	30%	50%	70%	10%
CCc1cc(-c2cc(F)c(F)c(F)c2)ccc1C1=C(O)C2(CCCC2)OC(C)(C)C1=O [Compound A-126]	10%	10%	10%	0%	40%	40%	70%	20%
CCc1cc(-c2ccc(F)c(OC)c2)ccc1C1=C(O)C(C)(CC)OC(C)(CC)C1=O (centres unmarked) [Compound A-128]	20%	10%	40%	0%	60%	60%	80%	70%
CCc1cc(-c2ccc(F)c(F)c2)ccc1C1=C(O)C(C)(CC)OC(C)(CC)C1=O (centres unmarked) [Compound A-129]	30%	30%	90%	10%	80%	90%	90%	70%
CCc1cc(-c2cc(F)c(F)c(F)c2)ccc1C1=C(O)C(C)(CC)OC(C)(CC)C1=O (centres unmarked) [Compound A-130]	60%	50%	40%	10%	60%	90%	90%	70%
CCc1cc(-c2cc(F)c(F)cc2F)ccc1C1=C(O)C(C)(CC)OC(C)(CC)C1=O (centres unmarked) [Compound A-132]	20%	20%	10%	0%	50%	60%	80%	0%
CCc1cc(-c2ccc(F)c(F)c2F)ccc1C1=C(O)C(C)(CC)OC(C)(CC)C1=O (centres unmarked) [Compound A-133]	30%	30%	0%	0%	50%	60%	60%	20%
CC1(C)OC(C)(C)C(O)=C(c2ccc(-c3ccc(F)cc3)cc2Cl)C1=O [Compound A-134]	30%	40%	80%	0%	50%	70%	100%	20%
CC1(C)OC(C)(C)C(O)=C(c2ccc(-c3ccc(F)cc3)cc2OC(F)(F)F)C1=O [Compound A-135]	10%	30%	30%	10%	60%	60%	100%	10%
CCc1cc(-c2ccc(F)c(OC)c2)ccc1C1=C(O)C(C)(C)SC(C)(C)C1=O [Compound B-4]	0%	0%	0%	0%	50%	40%	60%	80%
CCc1cc(-c2ccc(F)c(F)c2)ccc1C1=C(O)C(C)(C)SC(C)(C)C1=O [Compound B-5]	30%	50%	0%	20%	60%	70%	60%	70%
CCc1cc(-c2cc(F)c(F)c(F)c2)ccc1C1=C(O)C(C)(C)SC(C)(C)C1=O [Compound B-6]	50%	50%	0%	0%	80%	90%	80%	90%
